Here are results for 61 compounds from ChEMBL document CHEMBL1157539, “Thousands of chemical starting points for antimalarial lead identification” (Nature, 2010).

The test has as its system Plasmodium falciparum. Description: GSK_TCMDC: Inhibition of Plasmodium falciparum 3D7 in whole erythrocytes, using parasite LDH activity as an index of growth. It counts as functional, organism-based. The conditions noted are these: Plasmodium falciparum, 3D7.

The compound `Cc1cccc2nc(-c3cccc(-c4ccc(CNCc5ccccc5)cc4)c3)[nH]c12` showed an XC50 of 0.148 µM.

Compound `Cc1cccc2nc(-c3ccc(-c4ccc(CN5CCCC(N)C5)cc4)s3)[nH]c12` (stereo unspecified) had an XC50 of 0.382 µM.

For the compound `CCN1CCC(N(Cc2ccc(-c3ccc(C(F)(F)F)cc3)cc2)C(=O)Cn2c(CCc3cccc(F)c3F)cc(=O)c3c2CCCC3)CC1`, the XC50 stood at 0.755 µM.

As to `O=C(NCc1ccc(F)cc1)Nc1ccc(-c2ccc(-c3nc4ccccc4[nH]3)cc2)cc1`, the XC50 stood at 0.0907 µM.

`CN1CCC(NCc2ccc(-c3ccc(S(=O)(=O)NCc4ccccc4)s3)cc2)CC1` returned an XC50 of 0.765 µM.

Compound `Cn1nc(C(=O)N2CCC(c3[nH]ncc3Cc3ccccc3)CC2)c2ccccc2c1=O` showed an XC50 of 0.304 µM.

Regarding `CC(=O)C=C1CC(=O)N(C[C@@H](O)[C@H]2O[C@@H]3OC(C)(C)O[C@@H]3[C@H]2O)c2ccccc2N1`, the XC50 came out at 1.26 µM.

For `Cc1ccc2[nH]c(-c3cc(-c4ccc(CO)cc4)cnc3N)nc2c1`, the XC50 is 0.861 µM.

Compound `CN1CCN(CCCNCc2ccccc2-c2cccc(CNCc3ccc4c(c3)OCO4)c2)CC1` had an XC50 of 0.793 µM.

Consider `CCCCn1c(Sc2ccc(C#N)c([N+](=O)[O-])c2)nnc1-c1cccc(Cl)c1`, for which the XC50 came out at 0.762 µM.

In turn, `CC(CCCCC(=O)Nc1ccc(C(F)(F)F)cc1)NCC(O)c1cccc(Cl)c1` (stereo unspecified) gave an XC50 of 0.282 µM.

Take `COC(=O)c1ccc(CC(C)NCC(O)c2ccc(Cl)c(Cl)c2)cc1` (stereo unspecified): the XC50 came to 1 µM.

In turn, `COc1ccc(CNCC(C)(C)c2nc(-c3ccc(Cl)c(O)c3)c(-c3ccncc3)[nH]2)cc1` returned an XC50 of 0.357 µM.

The compound `Ic1cc(CNC2CCCCC2)ccc1OCc1cccc(COc2ccc(CNC3CCCCC3)cc2I)c1` yielded an XC50 of 0.829 µM.

With `N=C(NCCCCCCNC(=N)NC(=N)c1ccc(Cl)cc1)NC(=N)c1ccc(Cl)cc1`, the XC50 was determined as 0.212 µM.

`CC(C)(C)c1ccc(CNC(=O)c2cc(CNC3CCC(N)CC3)ccc2O)cc1` (stereo unspecified) gave an XC50 of 1.03 µM.

`O=C(Nc1ccc(S(=O)(=O)N2CCOCC2)cc1)c1cc(-c2cc(Cl)ccc2O)n[nH]1`: the XC50 worked out at 0.77 µM.

In turn, `CC1(C)CN(CCC2CCC(NC(=O)/C=C/c3ccc(F)cc3F)CC2)Cc2ccc(C#N)cc21` (stereo unspecified) displayed an XC50 of 0.787 µM.

In turn, `CC(C)(C)c1nn(-c2ccc(Cl)cc2)c2[nH]c(=O)c(CNCc3ccc4c(c3)OCO4)cc12` gave an XC50 of 0.81 µM.

The compound `CC(C)(C)C1CCc2nc(N)nc(N)c2C1` (stereo unspecified) had an XC50 of 0.0126 µM.

Consider `CCCCN(Cc1cccc(C(F)(F)F)c1Cl)c1ccc(C(O)(C(F)(F)F)C(F)(F)F)cc1`, for which the XC50 stood at 0.96 µM.

Consider `Cc1cc(C(=O)NCc2ccc(-c3c(C)noc3C)cc2)n(-c2ccccc2)n1`, for which the XC50 was 0.825 µM.

`O=C(Cn1c(SCc2cccc(F)c2F)cc(=O)c2ccccc21)N(Cc1ccc(-c2ccc(C(F)(F)F)cc2)cc1)C1CCN(CCO)CC1`: the XC50 worked out at 1.25 µM.

In turn, `O=c1c(Br)c(C(F)(F)F)[nH]c2ccc(Oc3ccccc3)cc12` showed an XC50 of 1.1 µM.

In the case of `O=C(NC1CCN(c2ccnc3cc(Cl)ccc23)C1)c1ccc(F)cc1F` (stereo unspecified), the XC50 came out at 0.372 µM.

`CC(C)C[C@H](NC(=O)c1ccc(OCCN2CCOCC2)cc1)C(=O)N[C@H](/C=N/N1CCNC1=O)CCc1ccccc1` came in with an XC50 of 0.365 µM.

Turning to `COc1ccc(Nc2ccnc3cc(Cl)ccc23)cc1OC`, the XC50 was 1.12 µM.

In turn, `O=C(Nc1ccc(Cl)cc1)c1ccc(CN2CCCN(Cc3cccc(F)c3)CC2)cc1` displayed an XC50 of 1.03 µM.

With `COc1ccc(Cn2c(Nc3cccc(C(F)(F)F)c3)nc3cc(C(=O)NCCN4CCCC4)ccc32)cc1Cl`, the XC50 was 0.83 µM.

As to `CC(C)(C)c1cc(C(=O)Nc2ccc(C(=N)N)cc2)c(O)c(C(C)(C)C)c1`, the XC50 was found to be 0.763 µM.

The compound `O=C(Nc1cccc(C(F)(F)F)c1)c1ccc(S(=O)(=O)NC2CCN(CC3CCCCC3)C2)cc1` (stereo unspecified) showed an XC50 of 0.789 µM.

In the case of `COc1ccc2ncc(F)c([C@H](O)CN3CCC(NCc4cc5c(cn4)OCCO5)CC3)c2c1`, the XC50 came to 0.292 µM.

`O=C(C=Cc1ccc(Cl)c(Cl)c1)NCCCCCN1CCC(CCNC(=O)c2cccc3ccccc23)CC1` came in with an XC50 of 1.59 µM.

Take `Cc1noc(-c2ccccc2)c1NC(=O)N1CCN(CCCCCCNC(=O)/C=C/c2ccc(Cl)c(Cl)c2)CC1`: the XC50 was 0.884 µM.

The compound `COc1ccc(N2CCN(CCCC/C=C/c3ccc(NC(=O)c4cc(Cl)cc(Cl)c4)cc3)CC2)c(OC)c1` showed an XC50 of 0.66 µM.

The compound `CCc1ccc(NC(=O)c2cccc(CN3CCCN(CC4CCCCC4)CC3)c2)cc1` displayed an XC50 of 0.952 µM.

For `CN(C)c1cccc2c1nc(-c1ccc3c(c1)CCO3)n2CCNCc1ccccc1`, the XC50 worked out at 0.734 µM.

For the compound `Cc1ccc(C2CCN(CCCCNC(=O)c3ccc(NC(=O)c4ccc(Cl)cc4)cc3)CC2)c(C)c1`, the XC50 was determined as 0.842 µM.

For the compound `O=C(NC1CCN(Cc2ccccc2)CC1)c1cc(C(=O)NC2CCN(Cc3ccccc3)CC2)cc(C(=O)NC2CCN(Cc3ccccc3)CC2)c1`, the XC50 worked out at 1.04 µM.

For `CC(=O)N(C)c1ccc(C(=O)Nc2cccc(-c3cccc(-c4nc5cccc(C)c5[nH]4)c3)c2)cc1`, the XC50 was 0.62 µM.

For `Cc1cc(=NN=Cc2ccc(F)cc2)c2cc(F)ccc2[nH]1`, the XC50 was determined as 0.644 µM.

`FC(F)(F)Oc1ccc(-c2cnc3ccc(NCc4ccncc4)nn23)cc1` registered an XC50 of 0.866 µM.

Consider `O=C1C2C3SC(c4c3ccc3ccccc43)C2C(=O)N1c1ccccc1` (stereo unspecified), for which the XC50 stood at 0.77 µM.

Compound `O=C(Nc1cccc(C(F)(F)F)c1)c1cccc(S(=O)(=O)NCC2CCCN(Cc3ccccc3)C2)c1` (stereo unspecified) came in with an XC50 of 1.1 µM.

`CC(O)C(C)(CO)NCc1ccc2c3c(cccc13)-c1ccccc1-2` (stereo unspecified): the XC50 is 0.818 µM.

Compound `COc1cccc(Nc2nnc(SCC(=O)NNC(=O)c3ccccn3)s2)c1` returned an XC50 of 0.38 µM.

For `CN1CCCN(Cc2cccc(-c3cccc(NC(=O)c4ccc(Cl)cc4)c3)c2)CC1`, the XC50 came out at 0.922 µM.

In turn, `O=C(CSc1nc2ccc([N+](=O)[O-])cc2s1)Nc1ccccc1-c1ccccc1` returned an XC50 of 1.17 µM.

Compound `CO/C(=C\C=C\c1cc2cc(Cl)c(Cl)cc2[nH]1)C(=O)N[C@H]1CN2CCC1CC2` displayed an XC50 of 1.21 µM.

On to `O=C(Nc1ccc(F)c([N+](=O)[O-])c1)Nc1cc(C(F)(F)F)ccc1Cl`, for which the XC50 amounted to 0.861 µM.

Turning to `CCCc1ccc(C(=O)N2C(c3nccs3)C(C(N)=O)CC2(CC(C)C)C(=O)O)cc1` (stereo unspecified), the XC50 is 0.156 µM.

In turn, `O=C(NC1CCN(Cc2ccccc2)CC1)c1csc2nc(-c3ccc(Cl)cc3)cn12` displayed an XC50 of 0.911 µM.

The compound `Nc1c(Cl)cc(C(O)CNCCCCCCOCCc2ccc(CO)s2)cc1Cl` (stereo unspecified) yielded an XC50 of 1.05 µM.

As for `c1cncc(Oc2ccc(Nc3ccnc4cc(-c5cccc(CNCCN6CCOCC6)c5)ccc34)cc2)c1`, the XC50 was found to be 0.112 µM.

For the compound `COc1cc2nc(NCC3CCN(c4nc(N)c5cc(OC)c(OC)cc5n4)CC3)nc(N)c2cc1OC`, the XC50 came to 0.776 µM.

The compound `COCCNCc1ccc(-c2ccccc2CNC2CCN(Cc3ccccc3)CC2)cc1` yielded an XC50 of 0.975 µM.

Turning to `CC(C)(C)CNCC(C)(C)c1nc(-c2ccc(Cl)c(O)c2)c(-c2ccncc2)[nH]1`, the XC50 was found to be 0.601 µM.

Take `Cc1c(C)n(C2CCCC2)c2ncnc(OC3CCN(CC(=O)NCC4CC4)CC3)c12`: the XC50 was found to be 0.891 µM.

The compound `COc1cc2nc(NCc3ccccc3)nc(NCc3ccccc3)c2cc1OC` had an XC50 of 0.151 µM.

Compound `O=C(Nc1ccc(F)c(Cl)c1)NC1CCN(c2ccnc3cc(Cl)ccc23)C1` (stereo unspecified) gave an XC50 of 0.215 µM.

`COC(=O)c1ccc2nc(-c3cc(-c4cccc(-c5ccccc5)c4)cnc3N)[nH]c2c1` yielded an XC50 of 0.211 µM.
